Data reported in ChEMBL document CHEMBL1201862, “PubChem BioAssay data set” (2004).
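Briefly, cells in 96-well plates were exposed to five compound concentrations for 48 h, and endpoints were estimated by linear interpolation. Abbreviation: GI50, concentration required for 50% inhibition of growth.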 Active and inactive are the calls of the source. Rule as the data show it: active = GI50 up to about 1.1 µM and inactive = higher.

Legend:
Experiment in all cases: NCI tumour cell line growth inhibition, 48 h
COLO 205 = system: COLO 205
SNB-19 = system: SNB-19
HOP-92 = system: HOP-92
HCC 2998 = system: HCC 2998
SF-268 = system: SF-268
SK-MEL-2 = system: SK-MEL-2
PC-3 = system: PC-3
SK-OV-3 = system: SK-OV-3
OVCAR-4 = system: OVCAR-4
786-0 = system: 786-0
SNB-75 = system: SNB-75
MCF7 = system: MCF7
NCI/ADR-RES = system: NCI/ADR-RES
OVCAR-5 = system: OVCAR-5
HOP-62 = system: HOP-62
Hs-578T = system: Hs-578T
NCI-H522 = system: NCI-H522
CCRF-CEM = system: CCRF-CEM
OVCAR-3 = system: OVCAR-3
Malme-3M = system: Malme-3M
MDA-N = system: MDA-N
CAKI-1 = system: CAKI-1
BT-549 = system: BT-549
HT-29 = system: HT-29
RPMI-8226 = system: RPMI-8226
SN12C = system: SN12C
SF-539 = system: SF-539
SF-295 = system: SF-295
EKVX = system: EKVX
MDA-MB-231 = system: MDA-MB-231
UACC-62 = system: UACC-62
MOLT-4 = system: MOLT-4
IGROV-1 = system: IGROV-1
UO-31 = system: UO-31
HCT-15 = system: HCT-15
SW-620 = system: SW-620
KM12 = system: KM12
M14 = system: M14
SK-MEL-28 = system: SK-MEL-28
TK-10 = system: TK-10
HCT-116 = system: HCT-116
NCI-H23 = system: NCI-H23
A498 = system: A498
T47D = system: T47D
DU-145 = system: DU-145
U-251 = system: U-251
SK-MEL-5 = system: SK-MEL-5
ACHN = system: ACHN
UACC-257 = system: UACC-257
OVCAR-8 = system: OVCAR-8
MDA-MB-435 = system: MDA-MB-435
K562 = system: K562
NCI-H460 = system: NCI-H460
LOX IMVI = system: LOX IMVI
SR = system: SR
A549 = system: A549
HL-60 = system: HL-60
NCI-H226 = system: NCI-H226
RXF 393 = system: RXF 393

Measured: GI50

O=C1CSC(c2ccc(Cl)cc2)N1c1ccc(-c2ccc(-n3c(-c4ccccc4)nc4ccccc4c3=O)cc2)cc1 (stereo not given)
inactive: COLO 205 27.8 µM | SNB-19 38.5 µM | HOP-92 11.4 µM | HCC 2998 93.5 µM | SF-268 21.6 µM | SK-MEL-2 51.5 µM | PC-3 26.1 µM | SK-OV-3 31.1 µM | OVCAR-4 19.3 µM | 786-0 27.4 µM | SNB-75 4 µM | MCF7 30.7 µM | NCI/ADR-RES 20 µM | OVCAR-5 > 10 µM | HOP-62 61.4 µM | Hs-578T 28.8 µM | NCI-H522 25.2 µM | CCRF-CEM 30.6 µM | OVCAR-3 > 100 µM | Malme-3M 28.4 µM | MDA-N 32.1 µM | CAKI-1 29.4 µM | BT-549 19 µM | HT-29 15.2 µM | RPMI-8226 55.7 µM | SN12C 68.1 µM | SF-539 24.1 µM | SF-295 37.5 µM | EKVX 56.9 µM | MDA-MB-231 38.8 µM | UACC-62 20.2 µM | MOLT-4 17.7 µM | IGROV-1 19 µM | UO-31 10.6 µM | SW-620 11.8 µM | KM12 26.2 µM | M14 43.6 µM | SK-MEL-28 41.1 µM | TK-10 69 µM | HCT-116 24.8 µM | NCI-H23 34.1 µM | A498 51.2 µM | T47D 13.8 µM | DU-145 49.1 µM | U-251 21.8 µM | SK-MEL-5 24.2 µM | ACHN 58.6 µM | UACC-257 > 100 µM | OVCAR-8 54.8 µM | MDA-MB-435 27.4 µM | K562 37.2 µM | NCI-H460 67.1 µM | LOX IMVI 17.7 µM | SR 28.2 µM | A549 37.5 µM | HL-60 > 100 µM
33.2 µM: HCT-15

COC/C=C\[C@@]1(O)CCCC[C@@H]1CC(OC)OC
27.4 µM: HCT-15
inactive: COLO 205 > 95.5 µM | NCI-H226 > 59.2 µM | SNB-19 43.6 µM | HOP-92 > 100 µM | HCC 2998 > 100 µM | SF-268 30.2 µM | SK-MEL-2 > 100 µM | PC-3 49.5 µM | SK-OV-3 > 100 µM | OVCAR-4 31.8 µM | 786-0 30 µM | SNB-75 60 µM | MCF7 2.75 µM | NCI/ADR-RES 38.2 µM | OVCAR-5 > 100 µM | HOP-62 36.2 µM | Hs-578T 37.2 µM | NCI-H522 17.5 µM | CCRF-CEM 19.2 µM | OVCAR-3 54.5 µM | Malme-3M 77.4 µM | MDA-N 33.7 µM | CAKI-1 > 100 µM | BT-549 64 µM | HT-29 > 59.6 µM | RPMI-8226 22.8 µM | SN12C 17.5 µM | SF-539 48.5 µM | SF-295 43.4 µM | EKVX > 100 µM | MDA-MB-231 > 100 µM | UACC-62 11.7 µM | MOLT-4 9.46 µM | IGROV-1 32.5 µM | UO-31 32.1 µM | SW-620 32.5 µM | KM12 31 µM | M14 46.7 µM | SK-MEL-28 37.4 µM | TK-10 > 100 µM | HCT-116 22.7 µM | NCI-H23 39.6 µM | T47D 34.1 µM | DU-145 38.5 µM | U-251 31.8 µM | SK-MEL-5 > 94.2 µM | ACHN 10.1 µM | UACC-257 > 100 µM | OVCAR-8 29.9 µM | MDA-MB-435 28.3 µM | K562 11.9 µM | NCI-H460 33.3 µM | RXF 393 > 54.3 µM | LOX IMVI 7.03 µM | SR 37.3 µM | A549 68.7 µM | HL-60 6.98 µM
